The target in series [1] is NMDA receptor subunits 1A/2A (NR1A+NR2A) (Rattus norvegicus, UniProt P35439+Q00959). As to the kind of experiment: Electrophysiological assay at cloned NMDA receptor subunits expressed in Xenopus oocytes, 1A/2A. The series is classed as cell-based. Here is the method:
(§1) Electrophysiological Assays at NMDA Receptor Subunits
(§2) The clones were transformed into appropriate host bacteria and plasmid preparations were made with conventional DNA purification techniques. A sample of each clone was linearized by restriction enzyme digestion and cRNA was synthesized with T3 RNA polymerase. The cRNA was diluted to 400 ng/μl and stored in 1 μl aliquots at −80° C. until injection.
(§3) The Xenopus oocyte Expression System
(§4) Follicle-enclosed oocytes were micro-injected with 1:1 mixtures of cRNA:NR1A+NR2A, 2B, 2C or 2D; injecting ˜2,5, or 20 ng of RNA encoding each receptor subunit. NR1A encoding cRNA was injected alone at ˜20 ng. Oocytes were stored in Barth's medium containing (in mM):NaCl, 88; KCl, 1; CaCl2, 0.41; Ca(NO3)2, 0.33; MgSO4, 0.82 NaHCO3, 2.4; HEPES 5, pH 7.4, with 0.1 mg/ml gentamicin sulphate. While oocytes were still surrounded by enveloping ovarian tissues the Barth's medium was supplemented with 0.1% bovine serum.
(§5) Electrical recordings were made using a conventional two-electrode voltage clamp (Dagan TEV-200) over periods ranging between 3-14 days following injection. […] Drugs were applied by bath perfusion. Using oocytes expressing different subunit combinations of NMDA receptor, NMDA currents were activated by co-application of glutamate and glycine. Inhibitory potency of the novel antagonists was assessed on responses elicited by fixed concentrations of glutamate and glycine, by measuring reductions in current induced by progressively increasing concentrations of antagonists.
(§6) Concentration-inhibition curves were fit with equation 1.
(§7) in which Icontrol is the current evoked by agonists alone, pIC50=−log IC50, IC50 is the concentration of antagonist that produces half maximal inhibition, and n is the slope factor. […] For incomplete curves analysis by fitting was unreliable and IC50 values were calculated by simple regression over linear portions of the curves (Origin: Microcal Software).

In series [2] the test system is maximal electroshock-induced seizures. As to the kind of experiment: Maximal electroshock-induced seizures (MES). It counts as in vivo, mice. The settings on record: Mus musculus. How it is done:
Maximal Electroshock-induced Seizures
Seizures were induced by application of current (50 mA, 60 pulses/sec, 0.8 sec pulse width, 1 sec duration, d.c.) through saline-coated corneal electrodes using a Ugo Basile ECT device (Model 7801). […] A tonic seizure was defined as a hindlimb extension in excess of 90 degrees from the plane of the body. Results were treated in a quantal manner.
(In the maximal electroshock model the usual endpoint is tonic extension of the hind limbs.)

Series [3] concerns the target NMDA receptor subunits 1A/2B (NR1A+NR2B) (Rattus norvegicus, UniProt P35439+Q00960). As to the kind of experiment: Electrophysiological assay at cloned NMDA receptor subunits expressed in Xenopus oocytes, 1A/2B. It counts as cell-based. Here is the method:
as §1, §2, §3, §4, §5, §6, §7

The target in series [4] is NMDA receptor subunits 1A/2C (NR1A+NR2C) (Rattus norvegicus, UniProt P35439+Q00961). As to the kind of experiment: Electrophysiological assay at cloned NMDA receptor subunits expressed in Xenopus oocytes, 1A/2C. It counts as cell-based. How it is done:
as §1, §2, §3, §4, §5, §6, §7

In series [5] the target is NMDA receptor subunits 1A/2D (NR1A+NR2D) (Rattus norvegicus, UniProt P35439+Q62645). As to the kind of experiment: Electrophysiological assay at cloned NMDA receptor subunits expressed in Xenopus oocytes, 1A/2D. It counts as cell-based. The settings on record: two-electrode voltage clamp, currents activated by glutamate and glycine. An excerpt: Electrophysiological Assays at NMDA Receptor Subunits […]
cDNA clones encoding the NR1A, NR2A, NR2B, NR2C and NR2D rat NMDA receptor subtypes were provided by Dr. P. H. Seeburg (see, Morivoshi et al., Nature (Lond.) 354:31-37 (1991); Kutsuwada et al., Nature (Lond.) 358:36-41 (1992) Monyer et al., Science (Washington. D.C.) 256:1217-1221 (1992); Ikeda et al., FEBS Lett. 313:34-38 (1992); Ishii et al., J. Biol. Chem. 268:2836-2843 (1993) for details of these clones or their mouse homologs). The clones were transformed into appropriate host bacteria and plasmid preparations were made with conventional DNA purification techniques. A sample of each clone was linearized by restriction enzyme digestion and cRNA was synthesized with T3 RNA polymerase. The cRNA was diluted to 400 ng/μl and stored in 1 μl aliquots at −80° C. until injection.
The Xenopus oocyte Expression System […]
Electrical recordings were made using a conventional two-electrode voltage clamp (Dagan TEV-200) over periods ranging between 3-14 days following injection. […] Inhibitory potency of the novel antagonists was assessed on responses elicited by fixed concentrations of glutamate and glycine, by measuring reductions in current induced by progressively increasing concentrations of antagonists. […]

The mark [6] stands for this setting: cloned rat NMDA receptor in Xenopus oocytes, two-electrode voltage clamp, currents activated by glutamate and glycine, read-out: Subunits (IC50(μM)) 1A/2A.
[7] abbreviates: cloned rat NMDA receptor in Xenopus oocytes, two-electrode voltage clamp, currents activated by glutamate and glycine, read-out: Subunits (IC50(μM)) 1A/2B.
[8] abbreviates: cloned rat NMDA receptor in Xenopus oocytes, two-electrode voltage clamp, currents activated by glutamate and glycine, read-out: Subunits (IC50(μM)) 1A/2C.

Like-named read-outs stand apart in the source and are kept apart here.

The text below walks through data of patent publication US6534525B1, “2-substituted piperidine analogs and their use as subtype-selective NMDA receptor antagonists” (Warner-Lambert & Company, priority 1995, dated 2003).

By melting point is commonly meant the temperature of the solid-liquid transition.

Sequence of NMDA receptor subunits 1A/2B (NR1A+NR2B) (Q00960 27-1482, other chains not shown): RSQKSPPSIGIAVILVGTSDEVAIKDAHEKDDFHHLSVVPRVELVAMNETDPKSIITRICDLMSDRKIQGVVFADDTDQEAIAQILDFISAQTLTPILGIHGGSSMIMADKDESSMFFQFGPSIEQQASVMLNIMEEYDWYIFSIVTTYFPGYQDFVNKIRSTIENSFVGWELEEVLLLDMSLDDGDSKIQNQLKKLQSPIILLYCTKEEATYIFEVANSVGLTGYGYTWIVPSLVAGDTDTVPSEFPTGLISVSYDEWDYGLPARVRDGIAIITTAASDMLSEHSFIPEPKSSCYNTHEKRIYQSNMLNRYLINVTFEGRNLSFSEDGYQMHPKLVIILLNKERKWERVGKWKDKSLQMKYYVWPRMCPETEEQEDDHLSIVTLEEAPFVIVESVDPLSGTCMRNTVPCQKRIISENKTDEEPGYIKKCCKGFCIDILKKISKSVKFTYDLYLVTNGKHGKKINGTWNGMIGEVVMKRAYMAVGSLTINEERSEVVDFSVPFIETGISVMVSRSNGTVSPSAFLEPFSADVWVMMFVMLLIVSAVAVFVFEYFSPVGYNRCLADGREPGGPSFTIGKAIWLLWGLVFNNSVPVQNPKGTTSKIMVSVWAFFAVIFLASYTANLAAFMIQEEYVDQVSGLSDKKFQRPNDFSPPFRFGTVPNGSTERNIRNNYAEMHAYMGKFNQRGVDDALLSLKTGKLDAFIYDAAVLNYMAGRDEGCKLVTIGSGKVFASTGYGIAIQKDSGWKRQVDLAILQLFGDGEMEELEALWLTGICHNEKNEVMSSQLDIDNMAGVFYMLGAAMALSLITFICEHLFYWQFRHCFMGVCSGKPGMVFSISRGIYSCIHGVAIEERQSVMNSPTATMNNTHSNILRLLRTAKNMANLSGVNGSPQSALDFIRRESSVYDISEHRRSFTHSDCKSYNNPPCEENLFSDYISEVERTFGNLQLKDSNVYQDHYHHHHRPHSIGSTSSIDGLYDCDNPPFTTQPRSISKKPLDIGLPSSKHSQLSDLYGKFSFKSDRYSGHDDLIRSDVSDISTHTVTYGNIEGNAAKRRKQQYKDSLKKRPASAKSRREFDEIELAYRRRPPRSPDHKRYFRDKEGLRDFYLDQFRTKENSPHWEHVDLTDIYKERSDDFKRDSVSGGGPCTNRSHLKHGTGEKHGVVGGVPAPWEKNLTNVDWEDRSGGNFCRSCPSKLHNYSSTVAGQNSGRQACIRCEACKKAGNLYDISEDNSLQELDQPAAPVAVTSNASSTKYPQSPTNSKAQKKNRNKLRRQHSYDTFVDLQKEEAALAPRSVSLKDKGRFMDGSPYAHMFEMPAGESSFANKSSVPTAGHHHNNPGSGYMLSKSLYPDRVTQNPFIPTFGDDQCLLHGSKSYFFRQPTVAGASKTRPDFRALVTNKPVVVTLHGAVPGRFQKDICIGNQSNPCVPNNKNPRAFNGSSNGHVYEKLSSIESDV
Sequence of NMDA receptor subunits 1A/2A (NR1A+NR2A) (Q00959 23-1464, other chains not shown): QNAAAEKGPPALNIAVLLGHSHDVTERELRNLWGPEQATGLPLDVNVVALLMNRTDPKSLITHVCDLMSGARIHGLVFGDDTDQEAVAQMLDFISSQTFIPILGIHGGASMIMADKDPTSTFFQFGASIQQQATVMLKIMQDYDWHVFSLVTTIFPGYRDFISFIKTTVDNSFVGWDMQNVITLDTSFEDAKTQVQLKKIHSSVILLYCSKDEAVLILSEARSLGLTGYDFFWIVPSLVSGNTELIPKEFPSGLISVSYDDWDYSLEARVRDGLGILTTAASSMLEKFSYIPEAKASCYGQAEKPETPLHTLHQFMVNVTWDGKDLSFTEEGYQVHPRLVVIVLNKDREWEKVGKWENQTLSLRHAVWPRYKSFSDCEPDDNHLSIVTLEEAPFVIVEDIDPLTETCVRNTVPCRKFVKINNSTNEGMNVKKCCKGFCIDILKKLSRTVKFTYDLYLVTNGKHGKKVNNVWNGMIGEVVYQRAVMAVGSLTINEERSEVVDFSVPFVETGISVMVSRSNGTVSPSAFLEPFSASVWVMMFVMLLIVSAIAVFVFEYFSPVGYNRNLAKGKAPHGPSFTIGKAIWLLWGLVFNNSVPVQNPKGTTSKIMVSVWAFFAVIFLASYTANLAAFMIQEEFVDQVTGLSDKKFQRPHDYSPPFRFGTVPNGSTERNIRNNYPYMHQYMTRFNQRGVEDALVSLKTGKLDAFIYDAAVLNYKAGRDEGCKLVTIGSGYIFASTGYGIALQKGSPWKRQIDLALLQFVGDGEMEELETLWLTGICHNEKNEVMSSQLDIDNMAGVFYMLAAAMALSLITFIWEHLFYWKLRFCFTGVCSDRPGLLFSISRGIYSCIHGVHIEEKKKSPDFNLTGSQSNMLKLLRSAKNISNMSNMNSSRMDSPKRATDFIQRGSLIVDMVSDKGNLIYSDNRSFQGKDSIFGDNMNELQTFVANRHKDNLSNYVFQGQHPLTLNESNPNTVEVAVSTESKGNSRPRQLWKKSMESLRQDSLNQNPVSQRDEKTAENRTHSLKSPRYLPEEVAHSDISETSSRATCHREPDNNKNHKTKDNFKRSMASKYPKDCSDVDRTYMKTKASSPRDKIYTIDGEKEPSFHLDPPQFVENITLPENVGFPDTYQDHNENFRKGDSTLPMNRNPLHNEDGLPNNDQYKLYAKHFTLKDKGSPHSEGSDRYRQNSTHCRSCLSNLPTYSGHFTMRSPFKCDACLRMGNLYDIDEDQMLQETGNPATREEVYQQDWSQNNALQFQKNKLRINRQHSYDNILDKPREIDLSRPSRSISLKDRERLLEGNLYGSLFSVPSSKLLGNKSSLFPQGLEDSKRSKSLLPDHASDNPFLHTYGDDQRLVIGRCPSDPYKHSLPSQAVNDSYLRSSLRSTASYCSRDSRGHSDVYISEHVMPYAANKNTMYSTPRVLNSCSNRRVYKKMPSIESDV
Sequence of NMDA receptor subunits 1A/2C (NR1A+NR2C) (Q00961 20-1237, other chains not shown): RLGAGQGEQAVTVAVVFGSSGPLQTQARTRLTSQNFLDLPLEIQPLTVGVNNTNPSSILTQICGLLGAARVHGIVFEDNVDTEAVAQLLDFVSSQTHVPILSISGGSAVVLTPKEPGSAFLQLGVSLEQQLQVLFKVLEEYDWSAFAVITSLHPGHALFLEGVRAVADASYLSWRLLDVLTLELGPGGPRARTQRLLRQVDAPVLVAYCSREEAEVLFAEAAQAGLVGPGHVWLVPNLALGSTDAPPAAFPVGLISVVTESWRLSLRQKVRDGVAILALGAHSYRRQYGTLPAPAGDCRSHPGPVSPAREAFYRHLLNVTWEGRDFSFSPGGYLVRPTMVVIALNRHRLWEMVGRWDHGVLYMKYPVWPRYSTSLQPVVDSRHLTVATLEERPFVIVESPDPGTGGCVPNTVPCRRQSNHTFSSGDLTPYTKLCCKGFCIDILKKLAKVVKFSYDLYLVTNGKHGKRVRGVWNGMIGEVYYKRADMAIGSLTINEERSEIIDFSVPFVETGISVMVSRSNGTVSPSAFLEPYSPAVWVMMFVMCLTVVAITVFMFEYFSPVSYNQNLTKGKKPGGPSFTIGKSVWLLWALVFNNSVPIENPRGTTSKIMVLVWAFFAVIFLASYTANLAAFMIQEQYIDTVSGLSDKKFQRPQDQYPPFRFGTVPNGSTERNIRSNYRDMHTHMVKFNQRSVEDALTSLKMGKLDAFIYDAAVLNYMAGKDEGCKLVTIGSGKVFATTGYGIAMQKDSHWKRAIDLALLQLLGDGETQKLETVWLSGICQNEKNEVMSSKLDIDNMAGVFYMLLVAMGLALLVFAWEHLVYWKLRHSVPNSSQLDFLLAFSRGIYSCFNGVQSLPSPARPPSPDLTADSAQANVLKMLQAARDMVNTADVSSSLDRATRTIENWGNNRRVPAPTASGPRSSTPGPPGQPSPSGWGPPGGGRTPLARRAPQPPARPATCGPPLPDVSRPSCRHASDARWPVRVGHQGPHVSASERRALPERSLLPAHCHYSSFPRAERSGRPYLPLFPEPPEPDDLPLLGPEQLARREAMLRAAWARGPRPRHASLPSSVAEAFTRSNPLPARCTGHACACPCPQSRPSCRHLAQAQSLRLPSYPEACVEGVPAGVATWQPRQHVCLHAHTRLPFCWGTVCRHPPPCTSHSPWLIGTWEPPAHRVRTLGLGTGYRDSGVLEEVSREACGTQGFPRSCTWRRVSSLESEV

For `c1ccc(CCCCN2CCCCC2Cc2ccccc2)cc1` (centres unmarked) [Example 5, 2-Benzyl-1-(4-phenylbutyl)piperidine], the values for the IC50 in series [1] (setting [6]), in series [3] (setting [7]) and in series [4] (setting [8]) were 5 µM, 8 µM and 55 µM, respectively. Also, the ED50 in series [2] (read-out: MES (ED50) (mg/kg)) is 4 mg/kg.
Take `Br.c1ccc(CC2CCCCN2CCCOc2ccccc2)cc1` (centres unmarked) [Example 7, 2-Benzyl-1-(3-phenoxypropyl)piperidine hydrobromide]: the melting point is 119 to 121 °C. In addition, the IC50 in series [1] (setting [6]) stood at 4 µM. Further, in series [2] (read-out: MES (ED50) (mg/kg)), the ED50 is 2.5 mg/kg. Also, the IC50 in series [3] (setting [7]) came out at 12 µM. In addition, in series [4] (setting [8]), the IC50 was found to be 45 µM.
In the case of `c1ccc(CC2CCCCN2CCCCOc2ccccc2)cc1` (centres unmarked) [Example 8, 2-Benzyl-1-(4-phenoxybutyl)piperidine], the IC50 in series [1] (setting [6]) stood at 3 µM; in series [3] (setting [7]), 8 µM; in series [4] (setting [8]) it was 45 µM. Moreover, the ED50 in series [2] (read-out: MES (ED50) (mg/kg)) was 4 mg/kg.
Take `CCOc1ccccc1OCC1CCCCN1CCCOc1ccccc1` (centres unmarked) [Example 17, 2-[(2-Ethoxy)phenyoxy]methyl-1-(3-phenoxy)propylpiperidine]: the IC50 is 13 µM in series [1] (setting [6]), 35 µM in series [3] (setting [7]), 110 µM in series [4] (setting [8]) and over 300 µM in series [5]. The ED50 in series [2] (mice, tonic hindlimb extensor response, 50 mA corneal electrodes, read-out: MES (ED50)) was 1 mg/kg.
Consider `Cc1ccccc1OCC(O)CN1CCCCC1Cc1ccccc1` (centres unmarked) [Example 18, 2-Benzyl-1-[2-hydroxy-3-(2-methyl)phenoxy]propylpiperidine], for which the IC50 is 23 µM in series [1] (setting [6]), 50 µM in series [3] (setting [7]), over 100 µM in series [4] (setting [8]) and over 300 µM in series [5].
Regarding `Cl.Fc1ccc(OCCN2CCCCC2Cc2ccc(Cl)cc2)cc1` (centres unmarked) [Example 24, 2-(4-Chlorobenzyl)-1-(2-(4-fluorophenoxy)ethyl)piperidine hydrochloride], the melting point fell in the range of 163 to 165 °C. Further, the IC50 in series [1] (setting [6]) was found to be 55 µM. Moreover, the IC50 in series [3] (setting [7]) amounted to 22 µM. Also, the IC50 in series [4] (setting [8]) was 160 µM.
`Cl.Oc1ccc(OCCN2CCCCC2Cc2ccc(Cl)cc2)cc1` (centres unmarked) [Example 25, 2-(4-Chlorobenzyl)-1-(2-(4-hydroxyphenoxy)ethyl)piperidine hydrochloride] yielded a melting point of 229 to 230 °C. Besides, the IC50 in series [1] was determined as 62 µM. For the same compound, the IC50 in series [3] was 4.2 µM. Also, the IC50 in series [4] came out at 160 µM.
Regarding `Cl.Oc1ccc(OCCN2CCCCC2Cc2ccccc2)cc1` (centres unmarked) [Example 26, 2-Benzyl-1-(2-(4-hydroxyphenoxy)ethyl)piperidine hydrochloride], the melting point fell in the range of 215 to 216 °C. Further, the IC50 in series [1] came to 80 µM. Further, in series [3], the IC50 worked out at 15 µM. For the same compound, the IC50 in series [4] was determined as 150 µM.
For `Cl.Oc1ccc(OCCCN2CCCCC2Cc2ccccc2)cc1` (centres unmarked) [Example 27, 2-Benzyl-1-(3-(4-hydroxyphenoxy)propyl)piperidine hydrochloride], the melting point was 163 to 164 °C. In addition, in series [1] (setting [6]), the IC50 came to 30 µM. Moreover, the IC50 in series [3] (setting [7]) was 16 µM. In addition, the IC50 in series [4] (setting [8]) came out at 40 µM.
